Consider 16 compounds from patent US7524847B2, “Fused 1,3-dihydro-imidazole ring compounds” (Eisai R&D Management Co., Ltd., priority 2002, dated 2009).

The test system of experiment [1] is normal mice (male C57BL/6N). In words: Effects on glucose tolerance in normal mice (in vivo experiment). The following applies: 1 mg/kg oral, 30 min before oral glucose 2 g/kg; blood glucose AUC0-120; 0.5% MC group = 100%, NVP DPP728 (10 mg/kg) group = 0%; lower = better. Here is the method: Animals: Male C57BL/6N mice (purchased from Japan Charles River) The test compounds were suspended in a 0.5% methylcellulose (MC) solution at the doses indicated below in Table 2. These test compounds and the NVP DPP728 (U.S. Pat. No. 6,011,155) suspension, or the 0.5% MC solution (the solvent control group), were administered orally at a dose of 10 mL/kg. 30 minutes later, a glucose solution was orally administered at a dose of 10 mL/kg. Glucose was orally administered at a dose of 2 g/kg. The tail vain of unanesthetized mice was cut with a razor blade to cause a small amount of bleeding immediately before administering the test substances or NVP DPP728, and immediately before, as well as 30, 60, and 120 minutes after, administration of the glucose solution. 10 μL of blood was collected, and this was mixed immediately with 0.6 M perchloric acid (140 μL). Glucose present in the supernatant obtained by centrifugation (1500 g, 10 minutes, 4° C., refrigerated centrifuge GS-6KR, Beckman) was measured using Glucose CII Test Wako (Wako Pure Chemicals). Results: In each of the groups to which 0.5% MC solution, NVP DPP728, and the test compounds were administered, the area under the curve of blood glucose vs. time was calculated over 0 to 120 minutes from the time of glucose administration (AUC0-120). Defining the AUC0-120 for the 0.5% MC solution-administered group as 100%, and the AUC0-120 for the NVP DPP728 (10 mg/kg)-administered group as 0%, the degree of improvement in glucose tolerance due to the test compound was calculated by the following equation: Degree of improvement in glucose tolerance (%)=(AUC0-120 of the test compound−AUC0-120 of the NVP DPP728 (10 mg/kg)-administered group)/(AUC0-120 of the 0.5% MC solution-administered group−AUC0-120 of the NVP DPP728 (10 mg/kg)-administered group)×100 The lower the % value, the better the degree of improvement in glucose tolerance.

Experiment [2] has as its target T1, DPP-IV obtained from pig kidney (Sus scrofa, UniProt P22411).
T1 construct: DPP-IV obtained from pig kidney; from tissue; host or cells: pig kidney
The experiment can be described thus: Measurement of DPPIV-inhibiting activity (in vitro experiment). Format: biochemical. The following applies: DPP-IV from pig kidney 10 mU/mL, substrate Gly-Pro-p-nitroanilide 0.33 mM, 20 min preincubation, 20 min reaction, absorbance 405 nm. Here is the method: DPP-IV obtained from pig kidney was dissolved in a reaction buffer (50 mM Tris-HCl pH7.4, 0.1% BSA) at 10 mU/mL, and 110 μL of this was used. 15 μL of the drug obtained from the aforementioned Examples was added, and this was incubated at room temperature for 20 minutes, and then 25 μL of a 2 mM solution of Gly-Pro-p-nitroanilide (final concentration 0.33 mM) was added to start the enzymatic reaction. The reaction time was 20 minutes, and 1 N phosphoric acid solution (25 μL) was added to stop the reaction.

Each structure is given as a SMILES string.

T1 sequence (P22411 whole entry): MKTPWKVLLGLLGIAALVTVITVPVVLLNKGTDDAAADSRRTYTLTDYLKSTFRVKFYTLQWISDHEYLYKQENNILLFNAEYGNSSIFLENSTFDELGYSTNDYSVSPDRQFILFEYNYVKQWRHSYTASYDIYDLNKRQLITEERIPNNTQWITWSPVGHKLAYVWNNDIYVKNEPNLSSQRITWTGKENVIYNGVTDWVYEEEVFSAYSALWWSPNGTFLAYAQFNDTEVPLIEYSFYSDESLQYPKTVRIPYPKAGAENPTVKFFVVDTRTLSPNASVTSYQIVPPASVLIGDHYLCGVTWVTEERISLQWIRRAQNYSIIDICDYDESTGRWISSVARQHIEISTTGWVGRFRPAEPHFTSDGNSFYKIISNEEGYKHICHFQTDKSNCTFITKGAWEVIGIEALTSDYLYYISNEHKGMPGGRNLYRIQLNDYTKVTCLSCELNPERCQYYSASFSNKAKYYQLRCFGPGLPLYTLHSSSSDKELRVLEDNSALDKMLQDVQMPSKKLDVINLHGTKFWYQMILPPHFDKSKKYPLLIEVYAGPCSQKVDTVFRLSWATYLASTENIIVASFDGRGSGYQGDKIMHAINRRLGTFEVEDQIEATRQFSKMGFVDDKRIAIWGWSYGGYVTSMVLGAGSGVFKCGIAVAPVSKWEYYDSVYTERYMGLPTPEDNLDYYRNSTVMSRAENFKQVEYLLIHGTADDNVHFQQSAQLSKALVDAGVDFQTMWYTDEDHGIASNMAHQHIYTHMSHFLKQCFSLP

In general, IC50 refers to the concentration that gives 50% inhibition. For `CC#CCn1c(=O)n(-c2cccnc2)c2nc(Cl)nc(N3CCNCC3)c21.O=C(O)C(F)(F)F` [Example 46, 7-(2-Butynyl)-2-chloro-6-(piperazin-1-yl)-9-(pyridin-3-yl)-7,9-dihydropurin-8-one trifluoroacetic acid salt], the “Degree of improvement in glucose tolerance (%)” value (“Degree of improvement … (%)” for short) in experiment [1] worked out at 37%. The same compound had an IC50 in experiment [2] of 42.6 nM.
The matching figures for `CC#CCn1c(=O)n(CC2CC2)c2nc(OC)nc(N3CCNCC3)c21.O=C(O)C(F)(F)F` [Example 51, 7-(2-Butynyl)-9-cyclopropylmethyl-2-methoxy-6-(piperazin-1-yl)-7,9-dihydropurin-8-one trifluoroacetic acid salt]: 59.3% and 130 nM.
For `CC#CCn1c(=O)n(-c2cnc(OC)nc2)c2ncnc(N3CCNCC3)c21.O=C(O)C(F)(F)F` [Example 64, 7-(2-Butynyl)-9-(2-methoxy-pyrimidin-5-yl)-6-(piperazin-1-yl)-7,9-dihydropurin-8-one trifluoroacetic acid salt] the same measures were −11.4% and 32.5 nM.
For `C=CCn1c(=O)n(CC#CC)c2c(N3CCNCC3)nc(OC)nc21.O=C(O)C(F)(F)F` [Example 47, 9-Allyl-7-(2-butynyl)-2-methoxy-6-(piperazin-1-yl)-7,9-dihydropurin-8-one trifluoroacetic acid salt] the same measures were 11.6% and 167 nM.
In the case of `CC#CCn1c(=O)n(CC#CC)c2c(N3CCNCC3)nc(OC)nc21.O=C(O)C(F)(F)F` [Example 48, 7,9-Di-(2-butynyl)-2-methoxy-6-(piperazin-1-yl)-7,9-dihydropurin-8-one trifluoroacetic acid salt], in experiment [1], the “Degree of improvement … (%)” value is given as 37.4%. The IC50 in experiment [2] worked out at 71.6 nM.
For `CC#CCn1c(=O)n(-c2cccnc2)c2ncnc(N3CCNCC3)c21.O=C(O)C(F)(F)F` [Example 61, 7-(2-Butynyl)-6-(piperazin-1-yl)-9-(pyridin-3-yl)-7,9-dihydropurin-8-one trifluoroacetic acid salt] the same measures were 9.4% and 61.9 nM.
For the compound `C=CCOc1nc(N2CCNCC2)c2c(n1)n(C)c(=O)n2CC#CC.O=C(O)C(F)(F)F` [Example 15, 2-Allyloxy-7-(2-butynyl)-9-methyl-6-(piperazin-1-yl)-7,9-dihydropurin-8-one trifluoroacetic acid salt], the “Degree of improvement … (%)” value in experiment [1] is on record as 46%. Moreover, the IC50 in experiment [2] came out at 319 nM.
For `C=CCn1c(=O)n(CC#CC)c2c(N3CCNCC3)ncnc21.O=C(O)C(F)(F)F` [Example 69, 9-Allyl-7-(2-butynyl)-6-(piperazin-1-yl)-7,9-dihydropurin-8-one trifluoroacetic acid salt] the same measures were 44.1% and 224 nM.
For `CC#CCn1c(=O)n(-c2ccccc2)c2nc(OC)nc(N3CCNCC3)c21.O=C(O)C(F)(F)F` [Example 54, 7-(2-Butynyl)-2-methoxy-9-phenyl-6-(piperazin-1-yl)-7,9-dihydropurin-8-one trifluoroacetic acid salt] the same measures were 24.4% and 88.8 nM.
As for `CC#CCn1c(=O)n(C)c2nc(OCC)nc(N3CCNCC3)c21.O=C(O)C(F)(F)F` [Example 10, 7-(2-Butynyl)-2-ethoxy-9-methyl-6-(piperazin-1-yl)-7,9-dihydropurin-8-one trifluoroacetic acid salt], the “Degree of improvement … (%)” value in experiment [1] was 17.3%. Besides, the IC50 in experiment [2] was found to be 251 nM.
For `CC#CCn1c(=O)n(C)c2nc(OC)nc(N3CCNCC3)c21.O=C(O)C(F)(F)F` [Example 1, 7-(2-Butynyl)-2-methoxy-9-methyl-6-(piperazin-1-yl)-7,9-dihydropurin-8-one trifluoroacetic acid salt], the “Degree of improvement … (%)” value in experiment [1] is 19.8%. The IC50 in experiment [2] worked out at 240 nM.
For `CC#CCn1c(=O)n(C)c2nc(Oc3ccccc3C#N)nc(N3CCNCC3)c21.O=C(O)C(F)(F)F` [Example 13, 2-[7-(2-Butynyl)-9-methyl-8-oxo-6-(piperazin-1-yl)-8,9-dihydro-7H-purin-2-yloxy]benzonitrile trifluoroacetic acid salt] the same measures were 33.5% and 24.7 nM.
Take `CC#CCn1c(=O)n(-c2ccnc(Cl)c2)c2ncnc(N3CCNCC3)c21.O=C(O)C(F)(F)F` [Example 65, 7-(2-Butynyl)-9-(2-chloro-pyridin-4-yl)-6-(piperazin-1-yl)-7,9-dihydropurin-8-one trifluoroacetic acid salt]: the “Degree of improvement … (%)” value in experiment [1] was found to be 9.5%. The compound further displayed an IC50 in experiment [2] of 16.7 nM.
On to `CC#CCn1c(=O)n(-c2ccoc2)c2nc(OC)nc(N3CCNCC3)c21.O=C(O)C(F)(F)F` [Example 56, 7-(2-Butynyl)-9-(furan-3-yl)-2-methoxy-6-(piperazin-1-yl)-7,9-dihydropurin-8-one trifluoroacetic acid salt], for which, in experiment [1], the “Degree of improvement … (%)” value is on record as 11.3%. In experiment [2], this compound registered an IC50 of 96.4 nM.
In the case of `CC#CCn1c(=O)n(C)c2nc(OC(C)C)nc(N3CCNCC3)c21.O=C(O)C(F)(F)F` [Example 7, 7-(2-Butynyl)-2-isopropoxy-9-methyl-6-(piperazin-1-yl)-7,9-dihydropurin-8-one trifluoroacetic acid salt], the “Degree of improvement … (%)” value in experiment [1] was 19.8%. In experiment [2], this compound had an IC50 of 199 nM.
For `CC#CCn1c(=O)n(CCC)c2nc(OC)nc(N3CCNCC3)c21.O=C(O)C(F)(F)F` [Example 52, 7-(2-Butynyl)-2-methoxy-6-(piperazin-1-yl)-9-propyl-7,9-dihydropurin-8-one trifluoroacetic acid salt] the same measures were 29.7% and 175 nM.
